# According to patent US11377425B1, “Small molecule modulators of IL-17” (LEO Pharma A/S, priority 2018, dated 2022):
# Molecular target: T1, human IL-17AA (Homo sapiens, UniProt Q16552)
# T1 construct: host or cells: HEK (human embryonic kidney) cells
# T1 sequence (Q16552 24-155): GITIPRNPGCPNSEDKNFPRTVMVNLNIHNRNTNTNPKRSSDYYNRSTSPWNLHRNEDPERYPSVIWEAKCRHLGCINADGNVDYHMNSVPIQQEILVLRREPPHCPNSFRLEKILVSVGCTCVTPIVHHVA
# Experiment: IL-8 release assay in human epithelial keratinocytes adult (HEKa)
# Assay type: cell-based
# Settings: HEKa cells, 3 ng/mL HEK-human IL-17AA + 10 ng/mL human TNFalpha; read-out: Rel EC50 IL-8 release assay
# Description: Example 138: IL-8 Release Assay in Human Epithelial Keratinocytes Adult (HEKa)
# Keratinocytes were seeded at 3500 cells/well in 384-well ViewPlates (Perkin Elmer) in Epilife medium (Thermo Fisher) containing human keratinocyte growth supplement (HKGS) without hydrocortisone and incubated in a humid incubator at 37° C. 5% CO2, overnight. The following day growth medium was removed and 25 μl fresh Epilife medium added. 75 nL test compound in 100% DMSO was added into each well reserved for test compounds, by the use of acoustic pipetting. The remaining wells received an equal volume of DMSO only, as vehicle control, or terfenadine in DMSO, as a positive control for any cytotoxic compounds. Subsequently, another 25 μL Epilife medium was added to each well. Finally, wells containing test compounds and wells prepared to yield maximum stimulation received […] of 9 ng/mL recombinant, human embryonic kidney cell (HEK)-derived human IL-17AA+30 ng/mL human TNF-alpha, in Epilife medium. Wells prepared to define 100% inhibition of IL-17 effects received 25 μL of 30 ng/mL human TNF-alpha alone, in Epilife medium. Final concentrations were 3 ng/mL HEK-human IL-17AA+10 ng/mL human TNFalpha (maximum stimulation) and 10 ng/mL human TNFalpha alone (100% inhibition, Emax), respectively. Cells were incubated for 68-72 hours in the incubator. IL-8 released from the cells was measured by the use of a commercial homogenous time-resolved fluorescence (HTRF) assay (CisBio). 2 μL cell culture supernatant was transferred to a 384-well Proxiplate. 5 μL HTRF reagent was added and the plates incubated sealed in the dark for 3-22 hours at room temperature. Time-resolved fluorescence was read at 665 vs 620 nm, with excitation at 320 nm, and IL-8 levels calculated as percent of controls. Reduction of the amount of secreted IL-8 indicates decreased IL-17 signaling. Concentration response curves were fitted by the use of a four-parameter logistic equation. Relative IC50 and Emax were reported from curves showing acceptable fit (r^2>0.9). Cytotoxicity was measured in the cell-containing Viewplates following addition of 7 μL PrestoBlue (Thermo Fisher) and incubation for 2.5-3 hours at room temperature, by measuring fluorescence at 615 nm (excitation at 535 nm). Fluorescence was directly proportional to the amount of metabolic activity. Reduction of fluorescence signal indicated cytotoxicity.
# Compounds of the present invention were tested in the IL-8 release assay in human epithelial keratinocytes.
# Compounds having a Relative EC50 of X; wherein X<100 nM; are indicated with *
# Compounds having a Relative EC50 of X; wherein 100 nM<X<1000 nM; are indicated with **
# Compounds having a Relative EC50 of X; wherein 1000 nM<X; are indicated with ***
row,SMILES,EC50
1,"Cc1n[nH]c(C)c1-c1ccc(NC(=O)[C@@H](NC(=O)c2ccnn2C(C)C)[C@@H](C)C2CC2)cc1 [Example 283, N-[(1S,2S)-2-cyclopropyl-1-[4-(3,5-dimethyl-1H-pyrazol-4-yl)phenyl]carbamoyl] propyl-2-isopropyl-pyrazole-3-carboxamide]",0.1 to 1 µM
2,"Cc1n[nH]c(C)c1-c1ccc(NC(=O)[C@@H](NC(=O)c2ccnn2C)C2CCCCC2(C)C)cc1 (stereo partly drawn) [Example 230, N-[(1S)-1-(2,2-dimethylcyclohexyl)-2-[4-(3,5-dimethyl-1H-pyrazol-4-yl)anilino]-2-oxo-ethyl]-2-methyl-pyrazole-3-carboxamide]",< 0.1 µM
3,"Cn1cncc1-c1ccc(NC(=O)[C@@H](NC(=O)c2ccnn2C)[C@@H]2CCc3ccccc32)cc1 [Example 376, N-[(1S)-1-[(1R)-indan-1-yl]-2-[4-(3-methylimidazol-4-yl)anilino]-2-oxo-ethyl]-2-methyl-pyrazole-3-carboxamide]",> 1 µM
4,"CCn1ccc(C(=O)N[C@H](C(=O)Nc2ccc(-c3c(C)n[nH]c3C)cc2)C(C2CC2)C2CC2)n1 [Example 199, N-[(1S)-1-(dicyclopropylmethyl)-2-[4-(3,5-dimethyl-1H-pyrazol-4-yl)anilino]-2-oxo-ethyl]-1-ethyl-pyrazole-3-carboxamide]",> 1 µM
5,"Cc1n[nH]c(C)c1-c1ccc(NC(=O)[C@@H](NC(=O)c2ccnn2C)C(C)C2CCC2)cc1 (single isomer, unassigned) [Example 195]",0.1 to 1 µM
6,"Cc1ncn(C)c1-c1ccc(NC(=O)C(NC(=O)OC(C)(C)C)C2CCC(F)(F)CC2)cc1 (single isomer, unassigned) [Example 85, tert-butyl N-[1-(4,4-difluorocyclohexyl)-2-[4-(3,5-dimethylimidazol-4-yl)anilino]-2-oxo-ethyl]carbamate]",> 1 µM
7,"Cn1cncc1-c1ccc(NC(=O)C(NC(=O)c2ccnn2C)C(c2cccc(F)c2)c2cccc(F)c2)cc1 (single isomer, unassigned) [Example 374A, N-(1,1-Bis(3-Fluorophenyl)-3-((4-(1-methyl-1H-imidazol-5-yl)phenyl)amino)-3-oxopropan-2-yl)-1-methyl-1H-pyrazole-5-carboxamide]",> 1 µM
8,"Cc1[nH]ncc1-c1ccc(NC(=O)[C@@H](NC(=O)c2ccnn2C)C(c2ccccc2)c2ccccc2)cc1 [Example 400, N-[(1S)-1-Benzhydryl-2-[4-(3-methyl-1H-pyrazol-4-yl)anilino]-2-oxo-ethyl]-2-methyl-pyrazole-3-carboxamide]",0.1 to 1 µM
9,"Cc1n[nH]c(C)c1-c1ccc(NC(=O)[C@@H](NC(=O)c2csc3cnccc23)C2CCCCC2)cc1 [Example 286, N-[(1S)-1-cyclohexyl-2-[4-(3,5-dimethyl-1H-pyrazol-4-yl)anilino]-2-oxo-ethyl]thieno[2,3-c]pyridine-3-carboxamide]",0.1 to 1 µM
10,"Cc1n[nH]c(C)c1-c1ccc(NC(=O)C(NC(=O)c2ccnn2C)C2CC3CC3C2)cc1 [Example 233, N-[(1S)-1-[(1R,55)-3-bicyclo[3.1.0]2-[4-(3,5-dimethyl-1H-pyrazol-4-yl)anilino]-2-oxo-ethyl]-2-methyl-pyrazole-3-carboxamide]",0.1 to 1 µM
11,"CC(C)C[C@H](NC(=O)OC(C)(C)C)C(=O)Nc1ccc(-c2cncn2C)cc1 [Example 96, tert-butyl N-[(1S)-3-methyl-1-[[4-(3-methylimidazol-4-yl)phenyl]carbamoyl]butyl] carbamate]",> 1 µM
12,"CCC(C)n1nccc1C(=O)N[C@H](C(=O)Nc1ccc(-c2c(C)n[nH]c2C)cc1)C(C1CC1)C1CC1 (stereo partly drawn) [Example 128, N-[(1S)-1-(dicyclopropylmethyl)-2-[4-(3,5-dimethyl-1H-pyrazol-4-yl)anilino]-2-oxo-ethyl]-2-sec-butyl-pyrazole-3-carboxamide]",< 0.1 µM
13,"Cc1n[nH]c(C(C)O)c1-c1ccc(NC(=O)[C@@H](NC(=O)C2(F)CC2)C2CCCCC2)cc1 (stereo partly drawn) [Example 441, N-[(1S)-1-cyclohexyl-2-[4-[5-(1-hydroxyethyl)-3-methyl-1H-pyrazol-4-yl]anilino]-2-oxo-ethyl]-1-fluoro-cyclopropanecarboxamide]",> 1 µM
